Measurements from patent US8293769B2, “CSF-1R inhibitors, compositions, and methods of use” (Novartis AG, priority 2008, dated 2012).

Columns and labels:
[1] = tested on: MNFS60 (murine AML cells); assay: Cell viability assay in MCSF dependent MNFS60 cells (Cell Titer Glo); assay type: cell-based; conditions: Mus musculus; tested at about 1 μM; MCSF 10 ng/mL, 72 hrs; read-out: CPEC50 MNFS60MCSF percent inhibition
Method: Cell viability was assessed by Cell Titer Glo, Promega. MNFS60 (murine AML cells) were seeded in TC treated 96-well plates at a density of 5,000 cells per well in RPMI-1640, 10% FBS, and 1% Penicillin Streptomycin prior to addition of compound. Test compounds were serially diluted (3 fold) in DMSO to 500× the final concentration. For each concentration of test compound, 2 μl (500×) aliquots of compound or 100% DMSO (control) were diluted in 500 μl of culture medium that contained 2× final concentration of growth factor MCSF for 2× concentration and then diluted 1× on the cells. Final concentration of MCSF is 10 ng/mL. Cells were incubated for 72 hrs at 37° C., 5% CO2. After the incubation 100 μl Cell Titer Glo is added to each well to determine viable cells. The assay was performed according to the manufacturer's instruction (Promega Corporation, Madison, Wis. USA). Each experimental condition was performed in triplicate. Raw data was imported in Abase and EC50s calculated with XL-fit data analysis software: Relative light units of wells that contained cells without MCSF in the media and as a consequence didn't grow were defined as 100% inhibited.

[2] = biological target: T1, PDGFRb (Homo sapiens, UniProt P09619); assay: PDGFRb kinase in vitro biochemical assay (alphascreen); conditions: tested at about 1 μM; read-out: PDGF RK BETA percent inhibition
T1 construct: The kinase domain of PDGFRβ was assayed in 50 mM Hepes; purchased Invitrogen P3082
Method: (§1) The IC50 values for the inhibition of RTKs were determined in the alphascreen format measuring the inhibition by compound of phosphate transfer to a substrate by the respective enzyme. Briefly, the respective RTK domain purchased as human recombinant protein (cKIT Upstate #14-559, PDGFRb Invitrogen #P3082) were incubated with serial dilutions of compound in the presence of substrate and ATP concentrations within 3 times the Km of the enzyme.
(§2) The kinase domain of cKIT was assayed in 50 mM Hepes, pH=7.5, 5 mM MgCl2, 10 mM MnCl2, 1 mM DTT, 0.1% BSA with 0.06 uM biotinylated peptide substrate (GGLFDDPSYVNVQNL-NH2) and 15 uM ATP (ATP KM apparent=15 uM). The kinase domain of PDGFRβ was assayed in 50 mM Hepes, pH=7.5, 20 mM MgCl2, 1 mM DTT, 0.1% BSA with 0.1 uM biotinylated peptide substrate (GGLFDDPSYVNVQNL-NH2) and 10 uM ATP (ATP KM apparent=25 uM). Reactions were incubated at room temperature for 3 to 4 hr and stopped with buffer (20 mM EDTA, 0.01% Tween-20 for both PDGFRb and cKIT). Alphascreen PY20 beads were added to the stopped cKIT reactions and PY20 Ab/Protein A Alphascreen beads were added to the PDGFRβ stopped reactions. Both reactions were incubated overnight and read on the Alphascreen reader. The concentration of compound for 50% inhibition (IC50) was calculated employing non-linear regression using XL-Fit data analysis software. As a control compound, staurosporine is run in every assay and a Z′>0.5 is required to validate results.

[3] = biological target: T2, cytoplasmic domain of the human CSF-1R (Homo sapiens, UniProt P07333); assay: In vitro kinase assay for CSF-1R (AlphaScreen); assay type: biochemical; conditions: tested at about 1 μM; read-out: CSF1RK 1 percent inhibition
T2 construct: Recombinant protein corresponding to the cytoplasmic domain of the human CSF-1R; purchased Invitrogen Corporation, Carlsbad, Calif; PV3249
T2 sequence (P07333 539-972 limits assumed): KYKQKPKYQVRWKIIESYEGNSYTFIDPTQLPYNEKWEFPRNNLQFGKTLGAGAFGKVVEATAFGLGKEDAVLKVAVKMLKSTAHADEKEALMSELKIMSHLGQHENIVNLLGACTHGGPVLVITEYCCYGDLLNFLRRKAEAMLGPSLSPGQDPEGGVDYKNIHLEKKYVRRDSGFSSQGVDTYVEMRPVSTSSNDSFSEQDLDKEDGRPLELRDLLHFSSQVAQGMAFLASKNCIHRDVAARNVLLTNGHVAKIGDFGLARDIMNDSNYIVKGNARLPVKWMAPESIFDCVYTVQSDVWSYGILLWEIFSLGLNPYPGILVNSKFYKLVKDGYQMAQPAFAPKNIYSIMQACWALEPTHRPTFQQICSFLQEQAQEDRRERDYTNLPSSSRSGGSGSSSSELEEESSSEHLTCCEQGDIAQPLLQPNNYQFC
Method: The kinase activity of various protein tyrosine kinases can be measured by providing ATP and a suitable peptide or protein tyrosine-containing substrate, and assaying the transfer of phosphate moiety to the tyrosine residue. Recombinant protein corresponding to the cytoplasmic domain of the human CSF-1R was purchased from Invitrogen Corporation, Carlsbad, Calif. U.S.A. (#PV3249). For each assay, test compounds were serially diluted, starting at 25 μM with 3 fold dilutions, in DMSO in 384 well plates then mixed with an appropriate kinase reaction buffer consisting of 50 mM Hepes, 5 mM MgCl2, 10 mM MnCl2, 0.1% BSA, pH 7.5, 1.0 mM dithiothreitol, 0.01% Tween 80 plus 1 μM ATP. Kinase protein and an appropriate biotinylated peptide substrate at 50 nM were added to give a final volume of 20 μL, reactions were incubated for 2 hours at room temperature and stopped by the addition of 10 μL of 45 mM EDTA, 50 mM Hepes pH 7.5. Added to the stopped reaction mix was 30 μL of PT66 Alphascreen beads (Perkin Elmer, Boston, Mass., U.S.A.). The reaction was incubated overnight and read on the Envision (Perkin Elmer). Phosphorylated peptide product was measured with the AlphaScreen system (Perkin Elmer) using acceptor beads coated with anti-phosphotyrosine antibody PT66 and donor beads coated with streptavidin that emit a fluorescent signal at the 520-620 nm emission wave length if in close proximity. The concentration of each compound for 50% inhibition (IC50) was calculated by non-linear regression using XL Fit data analysis software.
CSF-1R kinase was assayed in 50 mM Hepes pH 7.0, 5 mM MgCl2, 10 mM MnCl2, 1 mM DTT, 1 mg/mL BSA, 1.0 μM ATP, and 0.05 μM biotin-GGGGRPRAATF-NH2 (SEQ ID NO:1) peptide substrate. CSF-1R kinase was added at final concentration of 4 nM.

[4] = biological target: T3, cKIT (Homo sapiens, UniProt P10721); assay: cKIT kinase in vitro biochemical assay (alphascreen); conditions: tested at about 1 μM; read-out: CKIT percent inhibition
T3 construct: The kinase domain of cKIT was assayed in 50 mM Hepes; purchased Upstate 14-559
Method: as §1, §2

T1 sequence (P09619 600-962 limits assumed): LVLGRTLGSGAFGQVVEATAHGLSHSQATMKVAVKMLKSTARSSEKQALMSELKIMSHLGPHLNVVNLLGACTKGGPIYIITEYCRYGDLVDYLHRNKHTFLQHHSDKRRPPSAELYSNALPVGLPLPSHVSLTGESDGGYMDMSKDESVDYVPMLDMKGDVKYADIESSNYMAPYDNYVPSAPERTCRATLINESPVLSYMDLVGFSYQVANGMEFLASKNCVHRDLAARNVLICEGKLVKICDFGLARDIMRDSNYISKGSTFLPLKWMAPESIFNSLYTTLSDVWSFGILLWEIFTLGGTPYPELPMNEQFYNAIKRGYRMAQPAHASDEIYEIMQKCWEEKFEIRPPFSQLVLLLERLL
T3 sequence (P10721 589-937 limits assumed): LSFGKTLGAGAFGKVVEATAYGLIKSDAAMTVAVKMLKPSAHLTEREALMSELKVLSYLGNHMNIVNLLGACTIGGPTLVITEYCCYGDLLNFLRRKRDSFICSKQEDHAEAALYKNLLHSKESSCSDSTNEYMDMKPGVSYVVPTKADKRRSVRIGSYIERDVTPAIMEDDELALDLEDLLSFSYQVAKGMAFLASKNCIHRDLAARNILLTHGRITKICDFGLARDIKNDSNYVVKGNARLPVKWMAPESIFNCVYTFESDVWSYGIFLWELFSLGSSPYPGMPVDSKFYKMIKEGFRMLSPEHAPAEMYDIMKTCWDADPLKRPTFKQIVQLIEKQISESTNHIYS

Work on `Nc1ccc(-c2cncc(Oc3ccc4nc(N[C@@H]5CCCC[C@H]5O)sc4c3)c2)cn1` [Compound 47, (1R,2R)-2-(6-(6′-amino-3,3′-bipyridin-5-yloxy)benzo[d]thiazol-2-ylamino) cyclohexanol] yielded an inhibition at 1 µM [1] of 100%, an inhibition at 1 µM [2] of 1% and an inhibition at 1 µM [3] of 100%. For the same molecule, the inhibition at 1 µM [4] was 63%.
In the case of `N#Cc1ccc(-c2cncc(Oc3ccc4nc(N[C@@H]5CCCC[C@H]5O)sc4c3)c2)cn1` [Compound 73, 5′-(2-((1R,2R)-2-hydroxycyclohexylamino)benzo[d]thiazol-6-yloxy)-3,3′-bipyridine-6-carbonitrile], the inhibition at 1 µM [1] is reported as 23%, the inhibition at 1 µM [2] is reported as 3% and the inhibition at 1 µM [3] is reported as 99%. For the same molecule, the inhibition at 1 µM [4] was 44%.
`Cn1nccc1-c1cc(Oc2ccc3nc(N[C@@H]4CCCC[C@H]4O)sc3c2)ncn1` [Compound 25, (1R,2R)-2-(6-(6-(1-methyl-1H-pyrazol-5-yl)pyrimidin-4-yloxy)benzo[d]thiazol-2-ylamino) cyclohexanol] was tested, and the inhibition at 1 µM [1] was 14%, the inhibition at 1 µM [2] was 0% and the inhibition at 1 µM [3] was 69%. The inhibition at 1 µM [4] was 22%.
`CNC(=O)c1ccc(Oc2ccc3nc(N[C@@H](C)C4CCCCC4)sc3c2)cn1` [Compound 53, (S)-5-(2-(1-cyclohexylethylamino)benzo[d]thiazol-6-yloxy)-N-methylpicolinamide] was tested, and the inhibition at 1 µM [1] was 13%, the inhibition at 1 µM [2] was 13% and the inhibition at 1 µM [3] was 98%. For the same molecule, the inhibition at 1 µM [4] was 12%.
Molecule `C[C@H](Nc1nc2ccc(Oc3ccnc(-c4ccnn4C)n3)cc2s1)C1CCCCC1` [Compound 34, (S)-N-(1-cyclohexylethyl)-6-(2-(1-methyl-1H-pyrazol-5-yl)pyrimidin-4-yloxy)benzo[d]thiazol-2-amine] has an inhibition at 1 µM [1] of 19%, an inhibition at 1 µM [2] of 6% and an inhibition at 1 µM [3] of 100%. It also gave an inhibition at 1 µM [4] of 21%.
With `Cn1cc(-c2cc(Oc3ccc4nc(N[C@@H]5CCCC[C@H]5O)sc4c3)ncn2)cn1` [Compound 22, (1R,2R)-2-(6-(6-(1-methyl-1H-pyrazol-4-yl)pyrimidin-4-yloxy)benzo[d]thiazol-2-ylamino) cyclohexanol] the inhibition at 1 µM [1] was 100%, the inhibition at 1 µM [2] was 11% and the inhibition at 1 µM [3] was 100%. It also gave an inhibition at 1 µM [4] of 29%.
Work on `O[C@@H]1CCCC[C@H]1Nc1nc2ccc(Oc3cncc(-c4cncs4)c3)cc2s1` [Compound 70, (1R,2R)-2-(6-(5-(thiazol-5-yl)pyridin-3-yloxy)benzo[d]thiazol-2-ylamino) cyclohexanol] yielded an inhibition at 1 µM [1] of 100%, an inhibition at 1 µM [2] of 13% and an inhibition at 1 µM [3] of 100%. The inhibition at 1 µM [4] was 64%.
Molecule `c1cc(-n2cncn2)cc(Oc2ccc3nc(NCC4CCCCC4)sc3c2)n1` [Compound 24, 6-(4-(1H-1,2,4-triazol-1-yl)pyridin-2-yloxy)-N-(cyclohexylmethyl)benzo[d]thiazol-2-amine] has an inhibition at 1 µM [1] of 0%, an inhibition at 1 µM [2] of 9% and an inhibition at 1 µM [3] of 44%. The inhibition at 1 µM [4] was 7%.
`O[C@@H]1CCCC[C@H]1Nc1nc2ccc(Oc3cccnc3)cc2s1` [Compound 110, (1R,2R)-2-(6-(pyridin-3-yloxy)benzo[d]thiazol-2-ylamino)cyclohexanol] was tested, and the inhibition at 1 µM [1] was 54%, the inhibition at 1 µM [2] was 14% and the inhibition at 1 µM [3] was 100%. For the same molecule, the inhibition at 1 µM [4] was 10%.
`O[C@@H]1CCCC[C@H]1Nc1nc2ccc(Oc3cncc(-c4cnn(CC(F)F)c4)c3)cc2s1` [Compound 82, (1R,2R)-2-(6-(5-(1-(2,2-difluoroethyl)-1H-pyrazol-4-yl)pyridin-3-yloxy)benzo[d]thiazol-2-ylamino)cyclohexanol] showed an inhibition at 1 µM [2] of 0%, an inhibition at 1 µM [3] of 100% and an inhibition at 1 µM [4] of 82%.
Molecule `O[C@@H]1CCCC[C@H]1Nc1nc2ccc(Oc3cncc(-n4cncn4)n3)cc2s1` [Compound 42, (1R,2R)-2-(6-(6-(1H-1,2,4-triazol-1-yl)pyrazin-2-yloxy)benzo[d]thiazol-2-ylamino)cyclohexanol] has an inhibition at 1 µM [2] of 10%, an inhibition at 1 µM [3] of 51% and an inhibition at 1 µM [4] of 9%.
In the case of `N#Cc1ccc(Oc2ccc3nc(NCC4CCCCC4)sc3c2)cn1` [Compound 86, 5-(2-(cyclohexylmethylamino)benzo [d]thiazol-6-yloxy) picolinonitrile], the inhibition at 1 µM [2] is reported as 1%, the inhibition at 1 µM [3] is reported as 39% and the inhibition at 1 µM [4] is reported as 19%.
Molecule `O[C@@H]1CCCC[C@H]1Nc1nc2ccc(Oc3cncc(C4CC4)c3)cc2s1` [Compound 65, (1R,2R)-2-(6-(5-cyclopropylpyridin-3-yloxy)benzo[d]thiazol-2-ylamino) cyclohexanol] has an inhibition at 1 µM [2] of 8%, an inhibition at 1 µM [3] of 100% and an inhibition at 1 µM [4] of 73%.
Molecule `O[C@@H]1CCCC[C@H]1Nc1nc2ccc(Oc3cncc(-c4ccn[nH]4)c3)cc2s1` [Compound 78, (1R,2R)-2-(6-(5-(1H-pyrazol-5-yl)pyridin-3-yloxy)benzo [d]thiazol-2-ylamino)cyclohexanol] has an inhibition at 1 µM [2] of 9%, an inhibition at 1 µM [3] of 100% and an inhibition at 1 µM [4] of 88%.
In the case of `C[C@H](Nc1nc2ccc(Oc3cc(-n4cncn4)ccn3)cc2s1)C1CCCCC1` [Compound 39, (S)-6-(4-(1H-1,2,4-triazol-1-yl)pyridin-2-yloxy)-N-(1-cyclohexylethyl) benzo[d]thiazol-2-amine], the inhibition at 1 µM [2] is reported as 0%, the inhibition at 1 µM [3] is reported as 27% and the inhibition at 1 µM [4] is reported as 33%.
`CNC(=O)c1cncc(Oc2ccc3nc(NCC4CCCCC4)sc3c2)n1` [Compound 50, 6-(2-(cyclohexylmethylamino)benzo [d]thiazol-6-yloxy)-N-methylpyrazine-2-carboxamide] was tested, and the inhibition at 1 µM [2] was 11%, the inhibition at 1 µM [3] was 98% and the inhibition at 1 µM [4] was 32%.
